The subject of the experiment is Hara cells derived from human lung cancer. Nature of the experiment: Bone metastasis model: Hara cells transplanted into the heart of nude mice, preventive effect of OCT. It counts as in vivo. An excerpt:
Preventive effects of OCT on bone metastases were studied using a bone metastasis model prepared with Hara cells derived from human lung cancer.
A test of preventive effects of OCT on bone metastases of Hara cells was started on the 20th day after 5×10^5 Hara cells were transplanted into the heart of nude mice, at which time the body weight of the animals began to slightly decrease but neither rise in Ca nor clear bone metastasis image on soft X-rays was observed. On that day, the animals were grouped by body weight, and a vehicle (n=9) or 1 μg/kg of OCT (n=9) was orally administered to each animal 4 to 5 times per week for six weeks (29 times in total). At different instants during the administration period, the body weight and Ca level in blood were measured and soft X-ray photographs were taken.

The mark [1] stands for this setting: after 15 doses on the 22nd day after starting the test, 1 μg/kg OCT orally, n=9.
[2] abbreviates: after 20 doses on the 29th day after starting the test, 1 μg/kg OCT orally, n=9.
[3] abbreviates: first day of the test, 1 μg/kg OCT orally, n=9.

Experimental findings from patent US6869940B2, “Malignant tumor metastasis inhibitors” (Chugai Seiyaku Kabushiki Kaisha, priority 1995, dated 2005) are described below.

For `C=C1/C(=C\C=C2/CCC[C@@]3(C)C2CC[C@@H]3[C@H](C)OCCC(C)(C)O)C[C@@H](O)C[C@@H]1O` (stereo partly drawn) [OCT, 22-oxa-1α, 25-dihydroxyvitamin D3], the “effect on rise in Ca level in blood” value (1 μg/kg OCT orally vs vehicle group) was “tendency to suppress the rise in Ca level in blood”. For the setting “1 μg/kg OCT orally, n=9, in the vehicle group four animals died by the 42nd day”, the death result is listed as “no death was observed”. Besides, the “effect on body weight decrease” value (29th day, 1 μg/kg OCT orally vs vehicle group, p<0.05) is “significantly suppressed body weight decrease”. Also, the “Ca level in blood” value was 1.37 ± 0.04 mM under setting [1], 1.34 ± 0.16 mM under setting [2] and 1.32 ± 0.04 mM under setting [3]. This compound also yielded a body weight under setting [1] of 24.51 ± 1.27 g, a body weight under setting [2] of 25.00 ± 1.20 g and a body weight under setting [3] of 23.61 ± 1.57 g. Further, where the note is “during the administration period (six weeks), 1 μg/kg OCT orally, n=9, vehicle group: four animals in total”, the “bone metastasis image on soft X-ray photographs” value is reported as “no bone metastasis image was observed”.
